Here are results for two compounds from US10130602B2, “Use of L-carnitine, salts and derivatives thereof for reducing or preventing fatigue and improving cognitive function” (priority 2011, dated 2018).

Common to all, as to assay type: in vivo, human
For assay [1], the system named is healthy, young male and female adults. The assay is described as follows: Cognitive Demand Battery (CDB), overall performance. Particulars: for Beneficial effect on fatigue / cognitive function, overall statement: general statement, preliminary findings for acetyl-L-carnitine. From the text:
The working hypothesis underlying this approach is that neural activity is costly in terms of local neural resources (e.g. metabolic substrates) and that the brain is therefore liable to suffer deficiencies in the short term. Any psychoactive properties of a test substance are therefore liable to be more readily apparent during this period of intense cognitive demand and the ‘mental fatigue’ state elicited by prolonged task performance. This paradigm may therefore be more sensitive than the use of less demanding cognitive tasks, particularly if an intervention has an impact on the delivery or utilisation of metabolic substrates.
(§1) In the current double-blind, placebo-controlled, balanced cross-over experiment we assessed the effects of single doses of LC (500 mg and 2000 mg) and ALC (1000 mg), administered on separate occasions, on mental fatigue and cognitive function during extended performance of mentally demanding tasks in healthy, young male and female adults.
(§2) 20 healthy adults (10 male, 10 female, 18 to 25 years) who had not taken prescription or illicit drugs or any food supplements within the preceding 4 weeks were recruited. Smokers and excessive consumers of caffeine were excluded, as were those who had consumed alcohol or caffeine within the 12 hours prior to a testing session.
Each participant received each treatment in an order counterbalanced by random allocation to a Latin square. Depending on the condition to which the participant was allocated on each day they received 4 capsules containing either 500 mg LC or 500 mg ALC or a placebo which were combined to give a total dose of either:
(§3) The objective of this battery is to assess the impact of a treatment on speed/accuracy and mental fatigue during continuous performance of cognitively demanding tasks. […] The 10 minute battery comprises:
(§4) Following the introductory visit participants attended the laboratory at 8.30 am on four further occasions, one week apart, receiving a different treatment on each occasion. They fasted (no food or drink except for water) and consumed no caffeine or alcohol for at least 12 hours prior to each session. On their first study day participants were randomly allocated to a treatment regime on the Latin square. On arrival on each occasion participants consumed a standard breakfast (40 g Kellogg's All-bran with 150 ml skimmed milk and a glass of water) following which they undertook an initial cognitive/mood assessment comprising completion of the attention tasks (‘Simple’/‘Choice’/‘Four choice’ reaction time) followed by 2 completions of the 10 minute CDB tasks (the first completion was a practice and the second was used for baseline assessment of performance) and the Stroop and Logical Reasoning tasks. They then consumed their treatment for that day. At 120 minutes post-dose they completed the attention tasks then commenced the full 60 minute (i.e. 6 completions of the 10 minutes of tasks) CDB. […] Mood was assessed with Bond-Lader mood scales pre-treatment and before and after the post-treatment cognitive assessment. […]
(§5) Statistical analysis for all of the cognitive/fatigue and mood measures derived from the battery were analysed by repeated measures Analysis of Variance (ANOVA) of baseline adjusted data (calculated against pre-dose). Measures with a single post-dose repetition (attention tasks, executive tasks) were analysed by one way ANOVA (condition). Measures with multiple post-dose repetitions (Mood, CDB) were analysed with two way ANOVA (condition×repetition). […]

For assay [2] the test system is unchanged. The assay is described as follows: Bond-Lader mood scales. As to the method:
as §1, §2
Prior to and following the tasks mood was assessed with Bond and Lader scales. This measure has been utilised in numerous pharmacological, psychopharmacological and medical trials. The scales comprise a total of sixteen lines (approximately 100 mm on screen) anchored at either end by antonyms (e.g. alert-drowsy, calm-excited). Subjects indicate their current subjective position between the antonyms on the line. Individual item scores were calculated as % distance along the line. Outcomes comprised three factor analysis derived scores: ‘Alertness’, ‘Calmness’ and ‘Contentment’.
(§6) Following the introductory visit participants attended the laboratory at 8.30 am on four further occasions, one week apart, receiving a different treatment on each occasion. They fasted (no food or drink except for water) and consumed no caffeine or alcohol for at least 12 hours prior to each session. On their first study day participants were randomly allocated to a treatment regime on the Latin square. On arrival on each occasion participants consumed a standard breakfast (40 g Kellogg's All-bran with 150 ml skimmed milk and a glass of water) following which they undertook an initial cognitive/mood assessment comprising completion of the attention tasks (‘Simple’/‘Choice’/‘Four choice’ reaction time) followed by 2 completions of the 10 minute CDB tasks (the first completion was a practice and the second was used for baseline assessment of performance) and the Stroop and Logical Reasoning tasks. They then consumed their treatment for that day. At 120 minutes post-dose they completed the attention tasks then commenced the full 60 minute (i.e. 6 completions of the 10 minutes of tasks) CDB. Following completion of the CDB participants completed the ‘Logical Reasoning’ and the ‘Stroop’ executive function tasks. Mood was assessed with Bond-Lader mood scales pre-treatment and before and after the post-treatment cognitive assessment. The set-up is shown schematically in FIG. 1.
(§7) Statistical analysis for all of the cognitive/fatigue and mood measures derived from the battery were analysed by repeated measures Analysis of Variance (ANOVA) of baseline adjusted data (calculated against pre-dose). Measures with a single post-dose repetition (attention tasks, executive tasks) were analysed by one way ANOVA (condition). Measures with multiple post-dose repetitions (Mood, CDB) were analysed with two way ANOVA (condition×repetition). Planned comparisons (placebo versus each active treatment) were then undertaken on baseline adjusted data from the single completion, or each of the multiple completions, as appropriate, utilising t-tests with Mean Squares Error from the ANOVA (Keppel 1991).

Assay [3] has the same test system. Nature of the assay: Cognitive Demand Battery: subjective 'mental fatigue' scale. As to the method:
as §1, §2, §3
At the end of each set of tasks participants were asked to indicate how mentally fatigued they felt by marking a 100 mm line with the end-points labelled “not at all” and “extremely”.
as §4, §5

Assay [4] has the same test system. The assay is described as follows: Cognitive Demand Battery: Serial Threes subtractions. As to the method:
as §1, §2, §3
Modified, two minute, computerised versions of the Serial Threes and Serial Sevens tests were utilised. For both tasks a standard instruction screen informed the participant to count backwards in threes or sevens from the given randomly generated number, as quickly and accurately as possible, using the linear number keys to enter each response. Participants were also instructed verbally that if they made a mistake they should continue subtracting from the new, incorrect number. Each three-digit response was entered using the linear number keys on the keyboard with each digit being represented on screen by an asterisk. Pressing the enter key signals the end of each response and clears the three asterisks from the screen. The task was scored for total number of subtractions and number of errors. In the case of incorrect responses, subsequent responses were scored as positive if they were correct in relation to the new number.
as §4, §5

For assay [5] the test system is unchanged. The assay is described as follows: Cognitive Demand Battery: Serial Sevens subtractions. As to the method: as §1, §2, §3
Modified, two minute, computerised versions of the Serial Threes and Serial Sevens tests were utilised. […] The task was scored for total number of subtractions and number of errors. In the case of incorrect responses, subsequent responses were scored as positive if they were correct in relation to the new number.
Following the introductory visit participants attended the laboratory at 8.30 am on four further occasions, one week apart, receiving a different treatment on each occasion. […] Mood was assessed with Bond-Lader mood scales pre-treatment and before and after the post-treatment cognitive assessment. […]
as §5

Assay [6] has the same test system. Nature of the assay: Cognitive Demand Battery: Rapid Visual Information Processing task (RVIP). The method, then: as §1, §2, §3
The participants monitored a continuous series of digits for targets of three consecutive odd or three consecutive even digits. The digits were presented at the rate of 100 per minute and the participants responded to the detection of a target string by pressing a response key as quickly as possible. The task is continuous and lasts for 5 minutes, with 8 correct target strings being presented in each minute. The task was scored for percentage of target strings correctly detected, average reaction time for correct detections, and number of false alarms.
as §6, §7

The subject of assay [7] is healthy male and female individuals aged between 20 and 40 years. Nature of the assay: CogState 12 minute Early Phase cognitive test battery. As to the method: Effects of carnitine on cognitive function were studied with a CogState™ 12 minute Early Phase cognitive test battery. The test was developed by CogState, US, and is described in U.S. Pat. No. 7,163,513 B2. The test uses playing cards and computer mazes for measuring the cognitive domains of executive function, psychomotor function, visual attention and visual learning. Tasks correspond to cognitive domains as follows: Maze learning task. […] It was carried out with 20 healthy male and female individuals aged between 20 and 40 years. The test was double-blind and placebo-controlled and studied effects of 500 mg L-carnitine, administered as 736 mg L-carnitine L-tartrate (Carnipure™ tartrate, Lonza AG) in water in a single dose. A single test battery of about 10 min comprised maze learning task, a detection task with playing cards, an identification task with playing cards and a one card learning task. Consecutive accomplishing of the test battery took place twice prior to and hourly after intake of the study preparation over a period of 6 hours.

[8] abbreviates: 500 mg single dose in water, hourly over 6 hours.

Each structure is given as a SMILES string.

In the case of `CC(=O)O[C@H](CC(=O)[O-])C[N+](C)(C)C` [ALC, acetyl-L-carnitine], in assay [1] (1000 mg single dose), the “Performance of the CDB in comparison to placebo” value is given as “no evidence of benefits”. Further, the “Beneficial effect on fatigue / cognitive function, overall statement” value in assay [1] is given as “at best moderate”. In addition, the “Bond-Lader content rating compared to placebo” value in assay [2] (1000 mg single dose, after the post-dose tasks, p=0.015) is given as “less content”; in assay [2] (1000 mg single dose, before the post-dose tasks, p=0.001), “less content”. Moreover, the “Bond-Lader alert rating compared to placebo” value in assay [2] (1000 mg single dose, before undertaking the post-dose tasks, p=0.009) is recorded as “less alert”. Also, the “Bond-Lader alertness (summary of findings)” value in assay [2] (1000 mg single dose, second post-dose time-point as printed) is reported as “lower levels of alertness”.
As to `C[N+](C)(C)C[C@H](O)CC(=O)[O-]` [LC, L-carnitine], the “Subjective mental fatigue rating compared to placebo” value was “trend towards the same effect” in assay [3] (500 mg single dose, 4th repetition, p=0.065); “ratings of fatigue were lower” in assay [3] (500 mg single dose, 6th repetition, p=0.033); “numerically less ‘mentally fatigued’” in assay [3] (500 mg single dose, after each repetition, numerical, significant only after the last set); “higher than placebo” in assay [3] (2000 mg single dose, 5th repetition, p=0.02). Moreover, the “Serial 3s number of subtractions compared to placebo” value in assay [4] (500 mg single dose, 2nd repetition, p=0.08) is “statistical trends towards the same effect”; in assay [4] (500 mg single dose, 3rd repetition, p=0.09), “statistical trends towards the same effect”; in assay [4] (500 mg single dose, 4th repetition, planned comparison p=0.006), “more subtractions”; in assay [4] (500 mg single dose, 6th repetition, p=0.016), “more subtractions”; in assay [4] (2000 mg single dose, 5th repetition, p=0.04, may be type 1 error), “more subtractions”. Moreover, the “Performance of the CDB in comparison to placebo” value was “significant improvements in performance of the CDB” in assay [1] (500 mg single dose, planned comparisons) and “no evidence of benefits” in assay [1] (2000 mg single dose). For the same compound, the “Beneficial effect on fatigue / cognitive function, overall statement” value in assay [1] is recorded as “pronounced”. In addition, the “Serial 7s number of subtractions compared to placebo” value in assay [5] (500 mg single dose, 2nd repetition, p=0.044) is “more subtractions”; in assay [5] (500 mg single dose, 4th repetition, p=0.018) it was “more subtractions”; in assay [5] (2000 mg single dose, 4th repetition, p=0.053), “trend towards more subtractions”. For the same compound, the “RVIP accuracy compared to placebo” value is “outperformed placebo” in assay [6] (500 mg single dose, 2nd repetition, p=0.015); “outperformed placebo” in assay [6] (500 mg single dose, 3rd repetition, p=0.036); “trend towards the same effect” in assay [6] (500 mg single dose, 4th repetition, p=0.07). Also, the “RVIP speed of responses compared to placebo” value in assay [6] (500 mg single dose, 3rd repetition, p=0.013) is recorded as “performed faster”; in assay [6] (500 mg single dose, each of 6 repetitions, significant only at the 3rd) it was “performed faster at each repetition”; in assay [6] (2000 mg single dose, 4th repetition, p=0.089), “trend towards slower responding”. For the same compound, the “Psychomotor function (detection task)” value in assay [7] (500 mg single dose in water, after four, five and six hours) is “decrease of psychomotor function”. In addition, in assay [7] (500 mg single dose in water, at the time of decreased psychomotor function (4-6 hours)), the “Higher cognitive processes, such as memory and executive function” value is reported as “not impaired”. In assay [7] (setting [8]), the “Visual attentional function (identification task)” value is “no significant effect”. Also, the “Visual learning (one card learning task)” value in assay [7] (setting [8]) is “no significant effect”. In addition, the “Executive function (maze learning task)” value in assay [7] (500 mg single dose in water, two hours after intake, individuals without fatigue) is reported as “some evidence for a short-acting benefit”. In addition, the “Long time improvement of cognitive function” value in assay [7] (500 mg single dose, beyond approximately two hours) is “not observed”. The “Bond-Lader content rating compared to placebo” value in assay [2] (500 mg single dose, first (pre-task) post-dose assessment, p=0.004) is given as “less content”. Further, the “Bond-Lader calm rating compared to placebo” value in assay [2] (500 mg single dose, first (pre-task) post-dose assessment, p=0.037) is on record as “less calm”; in assay [2] (500 mg single dose, post task assessment, p=0.016), “more calm”.
